In this assay the test system is PBMCs from HLA-A24^+ cancer patients and HDs. Nature of the assay: Induction of peptide-specific CTLs from PBMCs, IFN-γ ELISA against peptide-pulsed C1R-A24 cells. It counts as cell-based, human. Conditions: for Total: healthy donors with induction of peptide-specific CTLs / donors tested: 8 HLA-A24^+ healthy donors; for Total: healthy donors with induction of peptide-specific CTLs / donors tested / Total: cancer patients with induction of peptide-specific CTLs / patients tested: positive when more than 50 pg/ml IFN-γ with p<0.05; for Total: cancer patients with induction of peptide-specific CTLs / patients tested: 20 HLA-A24^+ cancer patients; for IFN-γ Production: HIV peptide background subtracted, only significant values shown, — otherwise. The method, then:
PBMCs from HLA-A24^+ cancer patients and HDs were used for the CTL induction assay. For the induction of peptide-specific CTLs, PBMCs (1.5×10^5 cells/well) were incubated with 10 μg/ml of each peptide in four different wells of a 96-well microculture plate (Nunc) in 200 μl of culture medium containing interleukin (IL)-2, as reported previously (Non-Patent Literature 18). Every 3 or 4 days, half the culture medium was removed and replaced with new medium containing the corresponding peptide (20 μg/ml) and 100 U/ml IL-2. On the 14th day, the cells from each well were independently harvested, washed, separated into four wells, and tested for their ability to produce interferon (IFN)-γ in response to C1R-A24 cells pulsed with a corresponding peptide or a negative control HIV peptide in the duplicate assays. C1R-A24 is an HLA-A2402-expressing subline of C1R lymphoma (Dr. M. Takiguchi, Kumamoto University, Japan). After an 18-h incubation of C1RA-24, the supernatant was collected, and the level of IFN-γ was determined by ELISA.
Whether or not the SCCA107, SCCA112, SCCA215, and SCCA286 peptides had the potential to induce peptide-specific CTLs from the PBMCs of 20 HLA-A24^+ cancer patients and 8 HLA-A24^+ healthy donors was investigated. The group of twenty cancer patients consisted of 4 esophageal SCC patients, 4 cervical SCC patients, 4 lung cancer patients (2 adenocarcinomas, one small cell carcinoma, and one squamous cell carcinoma), 4 gastric adenocarcinoma patients, and 4 colon adenocarcinoma patients. The assay was carried out in quadruplicate. The cultured cells in one well were separated into 4 wells, and two wells were used for the SCCA peptide-pulsed C1R-A24 cells, and the other two were used for the HIV peptide-pulsed C1R-A24 cells.

From patent publication US8030443B2, “Squamous cell carcinoma antigen-derived peptide binding to HLA-A24 molecule” (Kurume University, priority 2005, dated 2011) come the findings set out here.

As to “LFGEKTYLFL (SCCA 107-116 peptide) [SCCA-derived peptide, position 107-116]”, the “Total: healthy donors with induction of peptide-specific CTLs / donors tested” value is reported as 1/8 and the “Total: cancer patients with induction of peptide-specific CTLs / patients tested” value is given as 3/20. In addition, the “Total: cancer patients with induction of peptide-specific CTLs / patients tested” value (listed as SCCA107) is on record as 3 of 20. For the same sequence, the “IFN-γ Production” value (PBMCs of HLA-A24^+ healthy donor 7) was 259 pg/mL. In addition, under “PBMCs of HLA-A24^+ patient 2, Esophagus”, the “IFN-γ Production” value worked out at 84 pg/mL. The “IFN-γ Production” value (PBMCs of HLA-A24^+ patient 6, Cervix of uterus) was 105 pg/mL. Further, the “IFN-γ Production” value (PBMCs of HLA-A24^+ patient 13, Stomach) came to 500 pg/mL.

Regarding “RFKVEESYDL (SCCA 286-295 peptide) [SCCA-derived peptide, position 286-295]”, the “Total: healthy donors with induction of peptide-specific CTLs / donors tested” value is recorded as 0/8 and the “Total: cancer patients with induction of peptide-specific CTLs / patients tested” value is on record as 3/20. Further, the “Total: cancer patients with induction of peptide-specific CTLs / patients tested” value (listed as SCCA286) is recorded as 3 of 20. Also, for the setting “PBMCs of HLA-A24^+ patient 4, Esophagus”, the “IFN-γ Production” value turned out to be 97 pg/mL. Further, where the note is “PBMCs of HLA-A24^+ patient 7, Cervix of uterus”, the “IFN-γ Production” value is 169 pg/mL.
